“And” between values parts separate entries of the source, which are not always exact repeats. Equal entries are not always repeated. “Also recorded” adds a separate entry of the source. Where two headings read alike, the source gives them in different places.
Columns and labels:
[1] = absorption, binding, metabolic, or excretory level; cited from earlier work
CYP3A4 = CYP3A4 (Homo sapiens, UniProt P08684); conditions: in vitro; cited from earlier work
[2] = Study 9 replicate crossover bioequivalence study; type: in vivo, human
[3] = Oral NEPA PK in cancer patients, summary across studies; type: in vivo; conditions: human, plasma
[4] = Study 11 population PK, patients (117), NEPA FDC, cited from earlier work
NK1 receptor [5] = biological target: NK1 receptor (Homo sapiens, UniProt P25103); conditions: NG108-15 cells; netupitant and palonosetron combined; cited from earlier work
NK1 receptor (Homo sapiens, UniProt P25103), sequence (P25103 whole entry, species assumed): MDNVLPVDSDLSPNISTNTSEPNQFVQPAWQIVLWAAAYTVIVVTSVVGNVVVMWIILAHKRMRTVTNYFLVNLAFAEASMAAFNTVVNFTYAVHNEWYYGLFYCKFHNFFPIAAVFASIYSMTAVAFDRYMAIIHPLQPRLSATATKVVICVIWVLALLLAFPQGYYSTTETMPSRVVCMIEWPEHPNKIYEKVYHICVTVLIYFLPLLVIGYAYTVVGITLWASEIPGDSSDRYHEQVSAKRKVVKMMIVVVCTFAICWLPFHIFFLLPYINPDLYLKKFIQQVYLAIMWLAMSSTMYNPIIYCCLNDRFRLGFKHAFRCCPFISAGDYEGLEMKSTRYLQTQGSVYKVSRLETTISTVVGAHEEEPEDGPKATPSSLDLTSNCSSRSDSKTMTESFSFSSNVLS

[6] = biological target: T1, P‐glycoprotein (P‐gp) efflux transporter (Homo sapiens, UniProt P08183); test: In vitro interaction with P-gp; type: in vitro ADME
T1 sequence (P08183 whole entry): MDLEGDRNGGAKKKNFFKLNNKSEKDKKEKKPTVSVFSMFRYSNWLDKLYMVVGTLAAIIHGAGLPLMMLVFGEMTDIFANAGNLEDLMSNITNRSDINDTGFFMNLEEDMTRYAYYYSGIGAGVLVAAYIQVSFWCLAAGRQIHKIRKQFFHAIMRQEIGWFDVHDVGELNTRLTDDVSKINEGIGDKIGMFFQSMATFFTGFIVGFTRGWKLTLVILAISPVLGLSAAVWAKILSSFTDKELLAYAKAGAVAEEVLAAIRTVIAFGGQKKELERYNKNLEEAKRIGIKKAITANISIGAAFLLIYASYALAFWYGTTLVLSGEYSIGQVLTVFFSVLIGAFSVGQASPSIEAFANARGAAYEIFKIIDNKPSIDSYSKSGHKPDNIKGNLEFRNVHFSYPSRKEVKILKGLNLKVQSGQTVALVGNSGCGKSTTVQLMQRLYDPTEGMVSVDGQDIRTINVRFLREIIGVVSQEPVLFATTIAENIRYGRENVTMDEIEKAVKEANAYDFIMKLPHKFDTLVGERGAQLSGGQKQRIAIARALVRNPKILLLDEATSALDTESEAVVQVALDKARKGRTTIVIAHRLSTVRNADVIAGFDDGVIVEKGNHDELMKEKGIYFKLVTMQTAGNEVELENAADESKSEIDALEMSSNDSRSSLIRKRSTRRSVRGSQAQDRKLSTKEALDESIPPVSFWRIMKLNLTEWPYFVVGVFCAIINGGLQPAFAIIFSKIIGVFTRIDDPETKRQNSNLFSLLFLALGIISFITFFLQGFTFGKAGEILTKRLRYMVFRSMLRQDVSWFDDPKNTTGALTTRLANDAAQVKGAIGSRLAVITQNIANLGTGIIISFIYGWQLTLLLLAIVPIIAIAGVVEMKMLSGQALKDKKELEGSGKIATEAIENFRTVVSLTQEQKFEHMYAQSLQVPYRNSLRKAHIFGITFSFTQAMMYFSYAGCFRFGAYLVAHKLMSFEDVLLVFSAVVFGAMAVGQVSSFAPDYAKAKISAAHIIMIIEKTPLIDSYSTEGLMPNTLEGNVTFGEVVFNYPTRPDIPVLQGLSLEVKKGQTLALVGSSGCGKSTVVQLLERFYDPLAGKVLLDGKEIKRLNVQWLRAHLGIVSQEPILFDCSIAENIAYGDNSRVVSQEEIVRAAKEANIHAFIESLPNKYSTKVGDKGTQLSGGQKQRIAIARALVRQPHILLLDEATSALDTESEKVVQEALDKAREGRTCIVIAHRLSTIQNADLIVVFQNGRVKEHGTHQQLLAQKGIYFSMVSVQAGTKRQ

[7] = Binding to plasma proteins; type: in vitro ADME; conditions: human, plasma
plasma proteins = test: Binding to plasma proteins; type: in vitro ADME
[8] = cited from earlier work
[9] = Apical-to-basolateral permeability in Caco-2 monolayer; type: in vitro ADME; conditions: human
[10] = biological target: T1, P‐glycoprotein (P‐gp) efflux transporter; conditions: in vitro, cited from earlier work
[11] = Study 10 comparative bioavailability study; type: in vivo, human
[12] = Study 2 ADME study of [14C]-netupitant; type: in vivo, human; conditions: estimated at day 29 after administration
[13] = Study 5 bioequivalence study, PK after single oral NEPA; type: in vivo, human
[14] = Octanol-water partition coefficient; type: physicochemical
NG108‐15 cells = conditions: netupitant and palonosetron combined; cited from earlier work
[15] = cited from earlier work; for CL/F / Cmax / Tmax / Vz/F / t1/2: Study 8, healthy volunteers (22), NEPA FDC, mean (CV%)
[16] = Study 11 population PK/pharmacodynamic study in cancer patients; type: in vivo, human; conditions: population PK modeling in patients
[17] = netupitant; cited from earlier work
NK1 receptor [18] = conditions: PET; at 6 hours after single 300-mg oral netupitant; cited from earlier work
CYP2D6 = CYP2D6 (Homo sapiens, UniProt P10635); test: In vitro CYP2D6 inhibition; type: in vitro ADME
CYP2D6, sequence (P10635 whole entry): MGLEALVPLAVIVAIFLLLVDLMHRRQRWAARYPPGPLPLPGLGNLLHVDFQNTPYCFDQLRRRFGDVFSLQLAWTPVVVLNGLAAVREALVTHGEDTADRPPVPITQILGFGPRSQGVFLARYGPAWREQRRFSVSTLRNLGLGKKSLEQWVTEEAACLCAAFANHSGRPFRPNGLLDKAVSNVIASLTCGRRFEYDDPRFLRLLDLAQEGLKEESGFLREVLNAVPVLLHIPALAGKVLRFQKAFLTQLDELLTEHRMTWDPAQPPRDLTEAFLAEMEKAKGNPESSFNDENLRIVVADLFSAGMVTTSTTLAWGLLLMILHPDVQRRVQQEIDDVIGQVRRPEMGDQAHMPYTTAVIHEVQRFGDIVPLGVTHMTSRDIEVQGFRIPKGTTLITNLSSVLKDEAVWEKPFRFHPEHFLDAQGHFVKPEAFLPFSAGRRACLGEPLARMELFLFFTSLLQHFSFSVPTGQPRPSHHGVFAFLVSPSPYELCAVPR

[19] = design: species or system human; conditions: estimated from t1/2
[20] = Absolute / oral bioavailability; type: in vivo; conditions: human, plasma, oral
clinical = conditions: human, in vivo, po
[21] = Study 4 pilot bioequivalence study, PK after single oral NEPA; type: in vivo; conditions: human, plasma
[22] = cited from earlier work; remark: listed apart in the source
[23] = Study 12 PK/safety and DDI study in cancer patients; type: in vivo; conditions: human, plasma, oral
[24] = Biopharmaceutics Classification System class and solubility in water; type: physicochemical
[25] = single-dose NEPA with 400-mg ketoconazole for 12 days vs alone
[26] = single-dose NEPA with daily 600-mg rifampicin for 17 days

CYP3A4, sequence (P08684 whole entry): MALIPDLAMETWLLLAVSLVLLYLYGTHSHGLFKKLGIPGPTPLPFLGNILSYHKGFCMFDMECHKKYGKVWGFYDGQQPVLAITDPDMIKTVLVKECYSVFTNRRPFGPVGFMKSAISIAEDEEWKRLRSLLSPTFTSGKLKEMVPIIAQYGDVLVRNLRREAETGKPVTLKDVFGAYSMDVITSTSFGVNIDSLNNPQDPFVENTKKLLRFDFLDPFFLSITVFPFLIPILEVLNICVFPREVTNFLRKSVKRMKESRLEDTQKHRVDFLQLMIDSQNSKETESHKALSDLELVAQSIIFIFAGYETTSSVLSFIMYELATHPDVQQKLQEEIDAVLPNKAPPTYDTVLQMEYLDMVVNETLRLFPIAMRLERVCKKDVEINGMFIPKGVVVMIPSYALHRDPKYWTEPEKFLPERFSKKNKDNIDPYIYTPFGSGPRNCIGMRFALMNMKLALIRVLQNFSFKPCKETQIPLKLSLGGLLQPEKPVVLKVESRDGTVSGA

SMILES: Cc1ccccc1-c1cc(N2CCN(C)CC2)ncc1N(C)C(=O)C(C)(C)c1cc(C(F)(F)F)cc(C(F)(F)F)c1 [netupitant]
- PK interaction between netupitant and palonosetron [1]: no relevant PK interactions
- CYP3A4 inhibition (CYP3A4): moderate inhibitor
- CL/F ([2]; Study 9, healthy volunteers (82), NEPA FDC commercial product, mean (CV%)): 26.2 (51.2) L/h
- Cmax ([2]; human, plasma, oral): 454 ng/mL
- Tmax ([2]; human, plasma, oral): 5.01 h
- Vd/F ([2]; human, plasma, oral): 2740 L
- half-life ([2]; human, plasma, oral): 76.6 h
- Cmax [3]: 477 to 567 ng/mL
- Tmax [3]: 4.02 to 4.56 h
- Vd/F [3]: 1660 to 2260 L
- Cmax ([4]; mean (CV%)): 567.3 (38.2) ng/mL
- Tmax ([4]; mean (CV%)): 4.02 (59.1) h
- t1/2 ([4]; mean (CV%)): 92.8 (32.8) h
- CL/F ([4]; value (%RSE)): 20.5 (%RSE 16.3) L/h
- combined effect on triggering NK1 receptor internalization (NK1 receptor [5]): additive effects
- Ki [6]: 3 µM
- fold by which unbound peak plasma concentration is lower than P-gp Ki ([6]; human, not told, oral): approximately 5 fold
- fraction unbound [7]: < 0.01
- binding to plasma proteins (plasma proteins): > 99%
- mass balance recovery of total radioactivity in urine ([8]; [14C]-netupitant and its metabolites M1, M2, and M3): 4.75%
- administered dose excreted through the feces (hepatic/biliary route) ([8]; netupitant and its metabolites): 87% and 86.5%
- Papp [9]: > 20 ×10⁻⁶ cm/s
- substrate of P-gp (MDR1/P-gp) efflux transporter [10]: not a P‐gp substrate; also recorded: not substrates
- inhibitor of P-gp efflux transporter ([10]; parent drugs): P‐gp inhibitor
- CL/F ([11]; Study 10, healthy volunteers (24), NEPA FDC standard dissolution, mean (CV%)): 25.7 (40.9) L/h
- Cmax ([11]; human, plasma, oral): 374 ng/mL
- Tmax ([11]; human, plasma, oral): 5.15 h
- Vd/F ([11]; human, plasma, oral): 3160 L
- half-life ([11]; human, plasma, oral): 89.9 h
- fraction of netupitant eliminated [12]: approximately 90%
- CL/F ([13]; Study 5, healthy volunteers (47), single oral NEPA FDC, mean (CV%)): 26.3 (47.4) L/h
- Cmax ([13]; human, plasma, po): 434 ng/mL
- Tmax ([13]; human, plasma, po): 5.07 h
- Vd/F ([13]; human, plasma, po): 3310 L
- half-life ([13]; human, plasma, po): 95.6 h
- logP [14]: 5.1
- combined effect on inhibition of substance P-mediated response (NG108‐15 cells): synergistic effects
- CL/F ([15]; fasted): 20.5 (52.7) L/h
- Cmax ([15]; fasted): 596.4 (39.1) ng/mL
- Tmax ([15]; fasted): 5.14 (17.3) h
- Vz/F ([15]; fasted): 2851 (57.3) L
- t1/2 ([15]; fasted): 101.2 (52.2) h
- CL/F ([15]; fed): 16.3 (23.1) L/h
- Cmax ([15]; fed): 649.8 (21.8) ng/mL
- Tmax ([15]; fed): 5.66 (17.1) h
- Vz/F ([15]; fed): 1984 (40.1) L
- t1/2 ([15]; fed): 86.3 (46.2) h
- AUCinf and Cmax under fed (high-fat breakfast) vs fasting conditions ([15]; open, randomized, 2-way crossover study in healthy volunteers): similar
- absorption lag time [16]: 0.77 h
- absorption rate constant [16]: 0.956 h⁻¹
- solubility in water [17]: very slightly soluble
- NK1 receptor occupancy in the striatum (NK1 receptor [18]): 92.5%
- inhibition or induction of CYP2D6 (CYP2D6): not an inhibitor or inducer
- fraction from previous NEPA administration eliminated at next dose ([19]; chemotherapy every 2 weeks): approximately 95%
- fraction from previous NEPA administration eliminated at next dose ([19]; chemotherapy every 3 weeks): approximately 99%
- bioavailability [20]: 63 to 87%
- Cmax (clinical): 374 to 650 ng/mL
- Tmax (clinical): 4.36 to 5.66 h
- Vd/F (clinical): 1980 to 3310 L
- half-life (clinical): 75.3 to 101 h
- Tmax [21]: 5.38 h
- Vd/F [21]: 2780 L
- half-life [21]: 89.2 h
- fold increase of AUCinf [22, 25]: 2.4 fold
- fold increase of Cmax [22, 25]: 1.2 fold
- fold decrease of AUCinf [22, 26]: 4.9 fold
- fold decrease of Cmax [22, 26]: 2.2 fold
- Vd/F [23]: 1860 to 2260 L
- CL/F (Healthy volunteers, Min-Max of study means, single oral NEPA): 16.3 to 26.3 L/h
- time after dosing until which plasma concentrations were quantifiable (after NEPA, M2 below LLOQ thereafter, others up to last observation time): 10 days
- plasma concentration as fraction of mean Cmax (at 3 hours after oral NEPA): approximately 80%
- peak plasma concentration of unbound netupitant (human, in vivo): 0.65 µM
- Biopharmaceutics Classification System class [24]: 2

— PMC6587462 (Journal of Clinical Pharmacology, 2018)
